Source: patent US9493472B2, “Substituted benzoxazoles” (BAYER PHARMA AKTIENGESELLSCHAFT, priority 2013, dated 2016)

Assays:
thrombin [1] = molecular target: T1, thrombin (Homo sapiens (Human), UniProt P00734); assay: Thrombin-inhibitory activity in plasma samples (ecarin-activated); format: biochemical; conditions: citrate plasma, prothrombinase activated by ecarin, fluorogenic thrombin substrate; in some cases means; read-out: IC50 [nM] thrombin inhibition in plasma samples
Protocol: To determine the inhibition of thrombin in plasma samples, plasma […] is activated by ecarin. Thrombin activity and/or its inhibition by potential inhibitors is/are then measured fluorenscently by addition of a substrate.
The substances to be tested are dissolved in various concentrations in dimethyl sulphoxide and diluted with water. In white 96-well flat-bottomed plates, 20 μl of substance dilution are mixed with 20 μl of ecarin solution (ecarin reagent, from Sigma E-0504, final concentration 20 mU per reaction) in Ca buffer (200 mM Hepes+560 mM sodium chloride+10 mM calcium chloride+0.4% PEG) or with 20 μl of Ca buffer (as unstimulated control). Furthermore, 20 μl of fluorogenic thrombin substrate (from Bachem I-1120, final concentration 50 μmol/l) and 20 μl of citrate plasma (from Octapharma) are added, and the mixture is homogenized well. The plate is measured in a SpectraFluorplus Reader using a 360 nm excitation filter and a 465 nm emission filter every minute over 20 minutes.

thrombin [2] = molecular target: T1, thrombin; assay: Measurement of the thrombin inhibition in buffer; format: biochemical; conditions: human thrombin 0.06 nmol/l, Tris buffer pH 7.4, 22° C.; substrate Boc-Asp(OBzl)-Pro-Arg-AMC; in some cases means
Protocol: To determine the thrombin inhibition of the substances listed above, a biochemical test system is constructed in which the conversion of a thrombin substrate is used for determining the enzymatic activity of human thrombin. Here, thrombin cleaves aminomethylcoumarin, which is measured fluorescently, from the peptic substrate. The determinations are carried out in microtitre plates.
Substances to be tested are dissolved in various concentrations in dimethyl sulphoxide and incubated for 15 min with human thrombin (0.06 nmol/l dissolved in 50 mmol/l of Tris buffer [C,C,C-tris(hydroxymethyl)aminomethane], 100 mmol/l of sodium chloride, 0.1% BSA [bovine serum albumin], pH 7.4) at 22° C. The substrate (5 μmol/l Boc-Asp(OBzl)-Pro-Arg-AMC from Bachem) is then added. After 30 min of incubation, the sample is excited at a wavelength of 360 nm and the emission is measured at 460 nm. The measured emissions of the test batches with test substance are compared to the control batches without test substance (only dimethyl sulphoxide instead of test substance in dimethyl sulphoxide) and the IC50 values are calculated from the concentration/activity relationships.

[3] = tested on: plasma (prothrombin time); assay: Anticoagulatory activity: prothrombin time (PT) in plasma; conditions: 37° C., 3 minutes incubation, plasma species not given, in some cases means, read-out: IC50 [μM] (concentration of test substance which effects a doubling of the prothrombin time)
Protocol: The anticoagulatory activity of the test substances is determined in vitro in human plasma, rabbit plasma and rat plasma. To this end, blood is drawn off in a mixing ratio of sodium citrate/blood of 1:9 using a 0.11 molar sodium citrate solution as receiver. Immediately after the blood has been drawn off, it is mixed thoroughly and centrifuged at about 4000 g for 15 minutes. The supernatant is pipetted off.
The prothrombin time (PT, synonyms: thromboplastin time, quick test) is determined in the presence of varying concentrations of test substance or the corresponding solvent using a commercial test kit (Neoplastin® from Boehringer Mannheim or Hemoliance® RecombiPlastin from Instrumentation Laboratory). The test compounds are incubated with the plasma at 37° C. for 3 minutes. Coagulation is then started by addition of thromboplastin, and the time when coagulation occurs is determined. The concentration of test substance which effects a doubling of the prothrombin time is determined Representative activity data from this test are given in Table 3 below (in some cases as means of individual determinations): […]

New Zealand rabbits = assay: Rabbit venous reperfusion and bleeding model (combi model rabbit); format: in vivo; conditions: for Increase in reperfusion (blood flow/time area): on top of tissue plasminogen activator; for Significance of increase in reperfusion: p > 0.05
Protocol: Male New Zealand rabbits having a weight of 2.8-3.4 kg are anaesthetized using an intramuscular ketamine/Rompun bole injection. The animal is then shaved at the places needed for the surgery. A continuous infusion of anaesthetic (ketamine/Rompun) is administered via the left auricular vein using an indwelling catheter. Left and right femoral vein and right femoral artery are catheterized with a polyethylene tube (PESO). The jugular vein is then carefully exposed such that the vessel is stressed and damaged as little as possible and no more fat is present at the vessel. Using a suitable apparatus for measuring flow (Powerlab, Transonic TS420 incl. flow probe head), the flow in the jugular vein is recorded (Lab Chart Software). Prior to the start of the experiment, twice 1.4 ml of citrated blood are removed from the rabbit via the femoral artery, and the basal bleeding time at the rim of the ear is determined. Once there has been a constant flow from the jugular vein for 10 min (complete regeneration of the vessel after preparation), a 2 cm section of the vein is pinched off using small vessel clamps. In a Petri dish, the citrated blood removed earlier (300 μl) is mixed with calcium chloride (0.25 M, 90 μl) and thrombin (25 U/ml, 60 μl). 180 μl of the blood/calcium chloride/thrombin mixture are quickly drawn into a 1 ml syringe and, via a 27G cannula, injected into the pinched-off segment of the vessel. The injection site is pinched off with a pair of tweezers for one minute so that no blood can escape. Two minutes after injection of the thrombus, the test substance is administered as bole and infusion via the left femoral vein catheter. 14 minutes after the thrombus injection, tissue plasminogen activator is administered as bole and infusion (Actilyse®, 20 μg/kg bole & 150 μg/kg/h infusion) at the right femoral vein. 15 minutes after thrombus injection, the stasis is opened and the flow probe head is attached. Blood flow in the vessel is recorded for 120 minutes, and the vessel is kept moist with warm 0.9% aqueous sodium chloride solution during this time. After 105 minutes of reperfusion, the ear bleeding time is determined again. At the end of the experiment, after 120 minutes of reperfusion, 1.4 ml of citrated blood are removed, the animal is sacrificed painlessly by a bole injection of 1.5 ml of T61 and the weight of the thrombus in the jugular vein is determined. The blood removed before and after the experiment is used to obtain plasma and to determine the ex vivo coagulation time.
The area obtainable with tissue plasminogen activator alone is subtracted from the area achieved using the respective substance or dosage. The resulting area is a measure of the improvement of reperfusion by the test substance (Table 4).

[4] = bole 0.33 mg/kg, continuous infusion 0.43 mg/kg/h
[5] = bole 0.08 mg/kg, continuous infusion 0.09 mg/kg/h

Q: For `COc1cc(C(=O)N2CC(C)(CC(C)O)OC[C@H]2C)cc2nc(NC(CF)c3cccc(Cl)c3)oc12` (stereo partly drawn) [Example 12, (2-{[1-(3-Chlorophenyl)-2-fluoroethyl]amino}-7-methoxy-1,3-benzoxazol-5-yl)[(5R)-2-(2-hydroxypropyl)-2,5-dimethylmorpholin-4-yl]methanone], which IC50 (thrombin [1]) is on record?
A: 14.7 nM

Q: What about the IC50 (thrombin [2]) of the same compound?
A: 0.1 nM

Q: And the IC50 [3]?
A: 1.5 µM

Q: With `COc1cc(C(=O)N2CC3(CC3)NC(=O)C2C)cc2nc(NC(CF)c3cccc(Cl)c3)oc12` (single isomer, unassigned) [Example 33, 7-[(2-{[1-(3-Chlorophenyl)-2-fluoroethyl]amino}-7-methoxy-1,3-benzoxazol-5-yl)carbonyl]-6-methyl-4,7-diazaspiro[2.5]octan-5-one] as the compound, how does the IC50 (thrombin [1]) read?
A: 8.4 nM

Q: What about the IC50 (thrombin [2]) of the same compound?
A: 0.38 nM

Q: What about the IC50 [3] of the same compound?
A: 0.8 µM

Q: `CCO[C@@H]1CC(CO)N(C(=O)c2cc(OC)c3oc(NC(CF)c4cccc(Cl)c4)nc3c2)C1` (single isomer, unassigned) [Example 27] was tested. Which IC50 (thrombin [1]) did it give?
A: 4.6 nM

Q: What about the IC50 (thrombin [2]) of the same compound?
A: 0.16 nM

Q: What about the IC50 [3] of the same compound?
A: 1 µM

Q: Which results are given for `COc1cc(C(=O)N2CC(C)(CCO)OC[C@H]2C)cc2nc(NC(CF)c3cccc(Cl)c3)oc12` (single isomer, unassigned) [Example 11]?
A: IC50 (thrombin [1]): 5.7 nM; IC50 (thrombin [2]): 0.01 nM; IC50 [3]: 1 µM

Q: What does the source list for `COc1cc(C(=O)N2CC(C)OC[C@H]2C)cc2nc(NC(CF)c3cccc(Cl)c3)oc12` (single isomer, unassigned) [Example 7]?
A: IC50 (thrombin [1]): 11.4 nM; IC50 (thrombin [2]): 5.3 nM; IC50 [3]: 1.9 µM

Q: For `COc1cc(C(=O)N2CC(C)OCC2CCO)cc2nc(NC(CF)c3cccc(Cl)c3)oc12` (stereo not shown) [Example 13, (2-{[1-(3-Chlorophenyl)-2-fluoroethyl]amino}-7-methoxy-1,3-benzoxazol-5-yl)[5-(2-hydroxyethyl)-2-methylmorpholin-4-yl]methanone], which IC50 [3] is on record?
A: 1.4 µM

Q: `COc1cc(C(=O)N2CC(C)OC[C@]23C[C@H](O)C3)cc2nc(NC(CF)c3cccc(Cl)c3)oc12` (stereo partly drawn) [Example 21, (2-{[1-(3-Chlorophenyl)-2-fluoroethyl]amino}-7-methoxy-1,3-benzoxazol-5-yl)(cis-2-hydroxy-7-methyl-8-oxa-5-azaspiro[3.5]non-5-yl)methanone] was tested. Which IC50 (thrombin [1]) did it give?
A: 6.2 nM

Q: What about the IC50 (thrombin [2]) of the same compound?
A: 1.4 nM

Q: What about the IC50 [3] of the same compound?
A: 1.3 µM

Q: For `COc1cc(C(=O)N2CC(C)OC[C@@H]2CCO)cc2nc(NC(CF)c3cccc(Cl)c3)oc12` (single isomer, unassigned) [Example 15], which “Increase in reperfusion (blood flow/time area)” value (New Zealand rabbits; [4]) is on record?
A: 12.2%

Q: And the “Significance of increase in reperfusion” value (New Zealand rabbits; [4])?
A: insignificant effect

Q: What about the IC50 [3] of the same compound?
A: 1.1 µM

Q: Which “Increase in reperfusion (blood flow/time area)” value (New Zealand rabbits; [5]) does the source give for `O=C(NC[C@H]1CN(c2ccc(N3CCOCC3=O)cc2)C(=O)O1)c1ccc(Cl)s1` [rivaroxaban, 5-chloro-N-({(5S)-2-oxo-3-[4-(3-oxo-4-morpholinyl)-phenyl]-1,3-oxazolidin-5-yl}methyl)-2-thiophenecarboxamide, reference compound] here?
A: 13.0%

Q: And the “Significance of increase in reperfusion” value (New Zealand rabbits; [5])?
A: insignificant effect

Q: For `COc1cc(C(=O)N2CC(C)(C)OC[C@H]2CCO)cc2nc(NC(CF)c3cccc(Cl)c3)oc12` (stereo partly drawn) [Example 25, (2-{[1-(3-Chlorophenyl)-2-fluoroethyl]amino}-7-methoxy-0,2-benzoxazol-5-yl)[(5R)-5-(2-hydroxyethyl)-2,2-dimethylmorpholin-4-yl]methanone], which IC50 (thrombin [1]) is on record?
A: 4.7 nM

Q: What about the IC50 (thrombin [2]) of the same compound?
A: 4.3 nM

Q: And the IC50 [3]?
A: 1.1 µM

Q: For `COc1cc(C(=O)N2CCC(O)C(C)C2)cc2nc(NC(CF)c3cccc(Cl)c3)oc12` (stereo not shown) [Example 1, (2-{[1-(3-Chlorophenyl)-2-fluoroethyl]amino}-7-methoxy-1,3-benzoxazol-5-yl)(4-hydroxy-3-methylpiperidin-1-yl)methanone], which IC50 (thrombin [1]) is on record?
A: 21 nM

Q: And the IC50 (thrombin [2])?
A: 3.2 nM

Q: For `COc1cc(C(=O)N2CC(C)OC[C@]23C[C@H](O)C3)cc2nc(NC(CF)c3cccc(Cl)c3)oc12` (stereo partly drawn) [Example 22, (2-{[1-(3-Chlorophenyl)-2-fluoroethyl]amino}-7-methoxy-1,3-benzoxazol-5-yl)(cis-2-hydroxy-7-methyl-8-oxa-5-azaspiro[3.5]non-5-yl)methanone], which IC50 (thrombin [1]) is on record?
A: 3.8 nM

Q: What about the IC50 (thrombin [2]) of the same compound?
A: 1.6 nM

Q: What does the source list for `COc1cc(C(=O)N2CC(C)(C)OCC2CO)cc2nc(NC(CF)c3cccc(Cl)c3)oc12` (single isomer, unassigned) [Example 6, (2-{[1-(3-Chlorophenyl)-2-fluoroethyl]amino}-7-methoxy-1,3-benzoxazol-5-yl)[5-(hydroxymethyl)-2,2-dimethylmorpholin-4-yl]methanone]?
A: IC50 (thrombin [1]): 16.5 nM; IC50 (thrombin [2]): 9.7 nM

Q: What does the source list for `COc1cc(C(=O)N2CC(C)OC[C@H]2C)cc2nc(NC(CF)c3cccc(Cl)c3)oc12` (single isomer, unassigned) [Example 8]?
A: IC50 (thrombin [1]): 25.3 nM; IC50 (thrombin [2]): 11 nM

Q: What does the source list for `COc1cc(C(=O)N2CC(C)(CCO)OC[C@H]2C)cc2nc(NC(CF)c3cccc(Cl)c3)oc12` (stereo partly drawn) [Example 9, (2-{[1-(3-Chlorophenyl)-2-fluoroethyl]amino}-7-methoxy-1,3-benzoxazol-5-yl)[(5R)-2-(2-hydroxyethyl)-2,5-dimethylmorpholin-4-yl]methanone]?
A: IC50 (thrombin [1]): 14.3 nM; IC50 (thrombin [2]): 0.2 nM

Q: What does the source list for `COc1cc(C(=O)N2CCC(O)C(C)C2)cc2nc(NC(CF)c3cccc(Cl)c3)oc12` (single isomer, unassigned) [Example 3, (2-{[1-(3-Chlorophenyl)-2-fluoroethyl]amino}-7-methoxy-1,3-benzoxazol-5-yl)(4-hydroxy-3-methylpiperidin-1-yl)methanone]?
A: IC50 (thrombin [1]): 11.6 nM; IC50 (thrombin [2]): 2.4 nM; IC50 [3]: 1.8 µM
